Like-named read-outs stand apart in the source and are kept apart here.
Columns and labels:
HT29 cells = assay: HT29 (MSS) 7 day viability, CellTiter Glo; assay type: cell-based; details: 7 days, read-out: HT29 (MSS) Viability 7 Day CTGAbs AC50
Method in brief: (§1)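 Luminescence read-out (CellTiter Glo) after 7-day compound exposure at 37 °C. Seeding density 50 cells/well for HCT116, 500 cells/well for HT29. Background from cell-free medium wells; IC50 by four-parameter logistic fit, geometric mean of at least 2 replicates.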

[1] = molecular target: T1, Full length WRN protein (aa 2-1432) (Homo sapiens (Human), UniProt Q14191); assay: WRN ATPase ADP-Glo biochemical assay, Assay Format B (100 μM ATP); details: 0.25 nM WRN, 100 nM C6.18 ssDNA, 60 min preincubation, read-out: ATPase ADPGlo AC50 (uM)- Assay Format B
T1 sequence (Q14191 2-1432): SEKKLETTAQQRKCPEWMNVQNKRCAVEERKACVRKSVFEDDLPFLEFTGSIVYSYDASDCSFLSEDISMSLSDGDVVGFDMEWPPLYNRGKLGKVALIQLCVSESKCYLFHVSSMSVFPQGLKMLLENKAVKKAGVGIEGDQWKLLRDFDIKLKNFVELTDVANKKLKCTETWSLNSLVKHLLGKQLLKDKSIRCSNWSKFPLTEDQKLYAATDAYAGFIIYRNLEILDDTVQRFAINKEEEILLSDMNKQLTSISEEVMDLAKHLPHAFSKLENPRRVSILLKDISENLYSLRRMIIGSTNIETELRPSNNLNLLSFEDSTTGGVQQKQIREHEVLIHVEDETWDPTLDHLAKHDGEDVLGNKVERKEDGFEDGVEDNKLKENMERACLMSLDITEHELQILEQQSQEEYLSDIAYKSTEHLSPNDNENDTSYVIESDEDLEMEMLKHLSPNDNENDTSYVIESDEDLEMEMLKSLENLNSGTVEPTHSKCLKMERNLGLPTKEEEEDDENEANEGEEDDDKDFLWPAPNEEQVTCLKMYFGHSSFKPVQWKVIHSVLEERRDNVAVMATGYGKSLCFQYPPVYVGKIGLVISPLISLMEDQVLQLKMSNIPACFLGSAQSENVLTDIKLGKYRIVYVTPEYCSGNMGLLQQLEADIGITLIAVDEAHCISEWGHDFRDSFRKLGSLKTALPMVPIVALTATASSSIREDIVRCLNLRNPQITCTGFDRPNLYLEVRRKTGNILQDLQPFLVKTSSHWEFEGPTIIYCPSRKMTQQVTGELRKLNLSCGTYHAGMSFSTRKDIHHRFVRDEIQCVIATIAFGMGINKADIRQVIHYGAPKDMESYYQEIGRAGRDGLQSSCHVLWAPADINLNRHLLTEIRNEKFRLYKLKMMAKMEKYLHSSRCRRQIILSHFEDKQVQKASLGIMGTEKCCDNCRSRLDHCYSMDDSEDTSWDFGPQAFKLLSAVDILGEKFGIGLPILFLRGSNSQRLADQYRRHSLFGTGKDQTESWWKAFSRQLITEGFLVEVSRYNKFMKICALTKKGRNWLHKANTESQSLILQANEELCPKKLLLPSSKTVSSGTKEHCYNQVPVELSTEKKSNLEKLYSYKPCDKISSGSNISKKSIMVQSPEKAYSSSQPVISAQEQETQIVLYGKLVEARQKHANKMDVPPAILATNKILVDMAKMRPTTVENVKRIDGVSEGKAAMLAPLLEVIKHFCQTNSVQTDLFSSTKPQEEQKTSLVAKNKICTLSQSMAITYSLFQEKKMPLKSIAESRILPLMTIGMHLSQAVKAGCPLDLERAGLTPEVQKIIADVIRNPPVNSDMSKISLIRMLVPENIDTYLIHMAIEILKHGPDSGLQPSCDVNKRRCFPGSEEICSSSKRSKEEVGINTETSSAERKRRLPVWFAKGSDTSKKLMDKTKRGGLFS

[2] = molecular target: T1, Full length WRN protein (aa 2-1432); assay: WRN ATPase ADP-Glo biochemical assay, Assay Format A (10 μM ATP); details: 0.25 nM WRN, 100 nM C6.18 ssDNA, 30 min preincubation, read-out: ATPase ADPGlo AC50 (uM)- Assay Format A
Method in brief: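 Sf9-expressed FLAG-AVI-TEV-tagged WRN (0.5 nM) preincubated 30 min with compound (11-point 3-fold dilution). Reaction started with 200 nM C6.18 39-mer ssDNA and 20 μM ATP (addition concentrations), run 30 min at room temperature. ADP measured by ADP-Glo luminescence; IC50 from four-parameter fit, geometric mean of ≥2 runs.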

HCT116 cells = assay: HCT116 (MSI) 7 day viability, CellTiter Glo; assay type: cell-based; details: 7 days, read-out: HCT116 (MSI) Viability 7 Day Abs AC50
Method in brief: as §1

Row | Compound | AC50 (HT29 cells; Homo sapiens, HT-29, 168 h) [nM] | AC50 [1] [µM] | AC50 [2] [µM] | AC50 (HCT116 cells; Homo sapiens, HCT-116, 168 h) [nM] | AC50 (HT29 cells) [nM] | AC50 (HCT116 cells) [nM]
1 | C=CC(=O)N1CCc2nn(-c3ccc(C4CC4)cc3O)c3c2C(C1)N(C(=O)c1ccc(Cl)nc1N)CC3 (stereo not shown) [Compound 199, 1-(5-(2-amino-6-chloronicotinoyl)-2-(4-cyclopropyl-2-hydroxyphenyl)-2,3,4,5,5a,6,8,9-octahydro-7H-1,2,5,7-tetraazabenzo[cd]azulen-7-yl)prop-2-en-1-one] | > 3000 | 0.005 to 0.015 | < 0.0015 | 1 to 100 |  | 
2 | C=CC(=O)N1CCc2nn(-c3ccc(C4CC4)c(F)c3OC)c3c2C(C1)N(C(=O)c1cnc(C(F)(F)F)c(O)c1)CC3 (stereo not shown) [Compound 63, 1-(2-(4-cyclopropyl-3-fluoro-2-methoxyphenyl)-5-(5-hydroxy-6-(trifluoromethyl)nicotinoyl)-2,3,4,5,5a,6,8,9-octahydro-7H-1,2,5,7-tetraazabenzo[cd]azulen-7-yl)prop-2-en-1-one] | > 3000 | 0.015 to 0.055 | 0.0015 to 0.005 | 500 to 1000 |  | 
3 | C=CC(=O)N1CCOc2nn(-c3ccc(C4CC4)cc3)c3c2C(C1)N(C(=O)c1ccc(Br)c2[nH]cnc12)CC3 (stereo not shown) [Compound 49, 1-(5-(7-bromo-1H-benzo[d]imidazole-4-carbonyl)-2-(4-cyclopropylphenyl)-2,3,4,5,5a,6,8,9-octahydro-7H-10-oxa-1,2,5,7-tetraazacycloocta[cd]inden-7-yl)prop-2-en-1-one] | > 3000 | 0.015 to 0.055 | < 0.0015 | 1 to 100 |  | 
4 | C=CC(=O)N1CCc2nn(-c3ccc(C(C)C)cc3)c3c2C(C1)N(C(=O)c1ccc(Br)c(C(C)(C)O)c1)CC3 (stereo not shown) [Compound 102, 1-(5-(4-bromo-3-(2-hydroxypropan-2-yl)benzoyl)-2-(4-isopropylphenyl)-2,3,4,5,5a,6,8,9-octahydro-7H-1,2,5,7-tetraazabenzo[cd]azulen-7-yl)prop-2-en-1-one] | > 3000 | > 0.055 | 0.005 to 0.015 | 500 to 1000 |  | 
5 | C=CC(=O)N1CCc2nn(-c3ccc(C4CC4)cc3)c3c2C(C1)N(C(=O)c1ccc(C(F)(F)F)nc1O)CC3 (stereo not shown) [Compound 109, 1-(2-(4-cyclopropylphenyl)-5-(2-hydroxy-6-(trifluoromethyl)nicotinoyl)-2,3,4,5,5a,6,8,9-octahydro-7H-1,2,5,7-tetraazabenzo[cd]azulen-7-yl)prop-2-en-1-one] | > 3000 | 0.015 to 0.055 | 0.005 to 0.015 | 250 to 500 |  | 
6 | C=CC(=O)N1CCc2nn(-c3ccc(C4CCC4)cc3O)c3c2C(C1)N(C(=O)c1cnc(Br)c(OC(F)(F)F)c1)CC3 (stereo not shown) [Compound 62, 1-(5-(6-bromo-5-(trifluoromethoxy)nicotinoyl)-2-(4-cyclobutyl-2-hydroxyphenyl)-2,3,4,5,5a,6,8,9-octahydro-7H-1,2,5,7-tetraazabenzo[cd]azulen-7-yl)prop-2-en-1-one] | > 3000 | > 0.055 | 0.0015 to 0.005 | 100 to 250 |  | 
7 | C=CC(=O)N1CCc2nn(-c3ccc(C(C)C)cc3O)c3c2C(C1)N(C(=O)c1ccc(Br)c2[nH]c(C(F)F)nc12)CC3 (stereo not shown) [Compound 174, 1-(5-(7-bromo-2-(difluoromethyl)-1H-benzo[d]imidazole-4-carbonyl)-2-(2-hydroxy-4-isopropylphenyl)-2,3,4,5,5a,6,8,9-octahydro-7H-1,2,5,7-tetraazabenzo[cd]azulen-7-yl)prop-2-en-1-one] | > 3000 | 0.0015 to 0.005 | < 0.0015 | 1 to 100 |  | 
8 | C=CC(=O)N1CC(C)c2nn(-c3ccc(C4CCC4)cc3O)c3c2C(C1)N(C(=O)c1cnc(C(F)(F)F)cc1N)CC3 (stereo not shown) [Compound 135, 1-(5-(4-amino-6-(trifluoromethyl)nicotinoyl)-2-(4-cyclobutyl-2-hydroxyphenyl)-9-methyl-2,3,4,5,5a,6,8,9-octahydro-7H-1,2,5,7-tetraazabenzo[cd]azulen-7-yl)prop-2-en-1-one] |  | 0.005 to 0.015 | < 0.0015 |  | > 3000 | 1 to 100
9 | C=CC(=O)N1CC(OC2CC3(COC3)C2)c2nn(-c3ccc(C4CCC4)cc3)c3c2C(C1)N(C(=O)c1cnc(C(F)(F)F)cc1N)CC3 (stereo not shown) [Compound 246] | > 3000 | 0.005 to 0.015 | < 0.0015 | 1 to 100 |  | 
10 | C=CC(=O)N1CCc2nn(-c3ccc(C4CC4)cc3OC(F)F)c3c2C(C1)N(C(=O)c1cnc(C(F)(F)F)cc1N)CC3 (stereo not shown) [Compound 252, 1-(5-(4-amino-6-(trifluoromethyl)nicotinoyl)-2-(4-cyclopropyl-2-(difluoromethoxy)phenyl)-2,3,4,5,5a,6,8,9-octahydro-7H-1,2,5,7-tetraazabenzo[cd]azulen-7-yl)prop-2-en-1-one] | > 3000 | 0.005 to 0.015 | 0.0015 to 0.005 | 1 to 100 |  | 
11 | C=CC(=O)N1CCc2nn(-c3ccc(C4CCC4)cc3)c3c2C(C1)N(C(=O)c1ccc(Br)c2[nH]nc(N)c12)CC3 (stereo not shown) [Compound 158, 1-(5-(3-amino-7-bromo-1H-indazole-4-carbonyl)-2-(4-cyclobutylphenyl)-2,3,4,5,5a,6,8,9-octahydro-7H-1,2,5,7-tetraazabenzo[cd]azulen-7-yl)prop-2-en-1-one] | > 3000 | 0.0015 to 0.005 | < 0.0015 | 1 to 100 |  | 
12 | C=CC(=O)N1CCc2nn(-c3ccc(C4CC4)cc3)c3c2C(C1)N(C(=O)c1cnc(Br)cc1N)CC3 (stereo not shown) [Compound 166, 1-(5-(4-amino-6-bromonicotinoyl)-2-(4-cyclopropylphenyl)-2,3,4,5,5a,6,8,9-octahydro-7H-1,2,5,7-tetraazabenzo[cd]azulen-7-yl)prop-2-en-1-one] | > 3000 | 0.005 to 0.015 | < 0.0015 | 1 to 100 |  | 
13 | C=CC(=O)N1CCc2nn(-c3ccc(C4CCC4)cc3O)c3c2C(C1)N(C(=O)c1ncc(Br)c2[nH]cnc12)CC3 (stereo not shown) [Compound 95, 1-(5-(7-bromo-1H-imidazo[4,5-c]pyridine-4-carbonyl)-2-(4-cyclobutyl-2-hydroxyphenyl)-2,3,4,5,5a,6,8,9-octahydro-7H-1,2,5,7-tetraazabenzo[cd]azulen-7-yl)prop-2-en-1-one] | > 3000 | 0.0015 to 0.005 | < 0.0015 | 1 to 100 |  | 
14 | C=CC(=O)N1CCc2nn(-c3ccc(C(C)C)cc3)c3c2C(C1)N(C(=O)c1ccc(Br)c2[nH]cnc12)CC3 (stereo not shown) [Compound 7, 1-(5-(7-bromo-1H-benzo[d]imidazole-4-carbonyl)-2-(4-isopropylphenyl)-2,3,4,5,5a,6,8,9-octahydro-7H-1,2,5,7-tetraazabenzo[cd]azulen-7-yl)prop-2-en-1-one] | > 3000 | 0.005 to 0.015 | < 0.0015 | 1 to 100 |  | 
15 | C=CC(=O)N1CCc2nn(Cc3ccccc3)c3c2C(C1)N(C(=O)c1cnc(C(F)(F)F)cc1N)CC3 (stereo not shown) [Compound 201, 1-(5-(4-amino-6-(trifluoromethyl)nicotinoyl)-2-benzyl-2,3,4,5,5a,6,8,9-octahydro-7H-1,2,5,7-tetraazabenzo[cd]azulen-7-yl)prop-2-en-1-one] | > 3000 | < 0.0015 | > 0.055 | > 1000 |  | 
16 | C=CC(=O)N1CCc2nn(-c3ccc(C4CCC4)cc3)c3c2C(C1)N(C(=O)c1cnc(C(F)(F)F)nc1N)CC3 (stereo not shown) [Compound 161, 1-(5-(4-amino-2-(trifluoromethyl)pyrimidine-5-carbonyl)-2-(4-cyclobutylphenyl)-2,3,4,5,5a,6,8,9-octahydro-7H-1,2,5,7-tetraazabenzo[cd]azulen-7-yl)prop-2-en-1-one] | > 3000 | 0.005 to 0.015 | < 0.0015 | 1 to 100 |  | 
17 | C=CC(=O)N1CC(O)c2nn(-c3ccc(C4CC4)cc3)c3c2C(C1)N(C(=O)c1cnc(C(F)(F)F)cc1N)CC3 (stereo not shown) [Compound 184, 1-(5-(4-amino-6-(trifluoromethyl)nicotinoyl)-2-(4-cyclopropylphenyl)-9-hydroxy-2,3,4,5,5a,6,8,9-octahydro-7H-1,2,5,7-tetraazabenzo[cd]azulen-7-yl)prop-2-en-1-one] | > 3000 | 0.005 to 0.015 | < 0.0015 | 1 to 100 |  | 
18 | C=CC(=O)N1CCc2nn(-c3ccc(C4CC4)cc3)c3c2C(C1)N(C(=O)c1c(N)cc(C(F)(F)F)nc1N)CC3 (stereo not shown) [Compound 186, 1-(2-(4-cyclopropylphenyl)-5-(2,4-diamino-6-(trifluoromethyl)nicotinoyl)-2,3,4,5,5a,6,8,9-octahydro-7H-1,2,5,7-tetraazabenzo[cd]azulen-7-yl)prop-2-en-1-one] | > 3000 | 0.005 to 0.015 | < 0.0015 | 1 to 100 |  | 
19 | C=CC(=O)N1CC(OC)c2nn(-c3ccc(C4CCC4)cc3)c3c2C(C1)N(C(=O)c1ccc(Br)c2[nH]cnc12)CC3 (stereo not shown) [Compound 27, 1-(5-(7-bromo-1H-benzo[d]imidazole-4-carbonyl)-2-(4-cyclobutylphenyl)-9-methoxy-2,3,4,5,5a,6,8,9-octahydro-7H-1,2,5,7-tetraazabenzo[cd]azulen-7-yl)prop-2-en-1-one] | > 3000 | 0.0015 to 0.005 | < 0.0015 | 1 to 100 |  | 
